For the first assay, the target named is T1, ER (Homo sapiens, UniProt P03372).
T1 construct: host or cells: T47D and MCF7 human breast cancer cells
T1 sequence (P03372 1-595): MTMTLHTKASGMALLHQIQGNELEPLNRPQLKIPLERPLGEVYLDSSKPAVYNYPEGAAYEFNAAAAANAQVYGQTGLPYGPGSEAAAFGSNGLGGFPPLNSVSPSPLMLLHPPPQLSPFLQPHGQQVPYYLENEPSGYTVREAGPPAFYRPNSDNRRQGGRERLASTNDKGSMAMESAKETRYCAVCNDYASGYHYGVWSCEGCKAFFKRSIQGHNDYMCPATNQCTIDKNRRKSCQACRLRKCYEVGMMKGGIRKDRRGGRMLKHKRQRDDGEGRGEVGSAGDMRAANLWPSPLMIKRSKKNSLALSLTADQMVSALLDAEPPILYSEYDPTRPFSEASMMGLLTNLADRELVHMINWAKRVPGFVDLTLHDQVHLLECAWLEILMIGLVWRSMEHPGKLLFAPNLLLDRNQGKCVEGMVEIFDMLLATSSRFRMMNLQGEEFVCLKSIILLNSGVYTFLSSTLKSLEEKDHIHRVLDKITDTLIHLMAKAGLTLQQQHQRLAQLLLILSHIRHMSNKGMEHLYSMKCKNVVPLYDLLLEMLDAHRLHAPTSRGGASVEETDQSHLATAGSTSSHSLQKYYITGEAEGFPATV
As to the kind of experiment: ER degradation activity, in-cell western blot analysis in T47D cells. It counts as cell-based. To be noted: 16 hours, Table A does not say which cell line (T47D or MCF7), read-out: Potency (DC50). As to the method: ER degradation activity was evaluated in the human breast cancer cell line T47D and MCF7 purchased from the American Type Culture Collection (ATCC), Manassas, VA, and maintained and cultured in Dulbecco's Modified Eagle's medium (DMEM) containing 10% fetal bovine serum, 1 unit/ml of penicillin and 1 μg/ml of streptomycin.
The protocol for the in-cell western blot analysis: a. seed cells in black-sided/clear bottom 96- or 384-well plates at 40,000 or 10,000 cells/well, overnight; b. add diluted compounds (final 0.5% DMSO), 16 hours. […] RT 2 h, gentle shaking. Negative control: cells plus secondary antibodies (no primary antibodies); e. wash ×4 with PBS+0.05-0.1% Tween 20, gentel shaking; f. anti-rabbit-680 and anti-mouse-800 (both 1:1000 in LiCor block+0.05% Tween20, RT 1 h, gentle shaking, no light. LI-COR: 0.2% to reduce background; g. wash×4 with PBS+0.05% Tween 20, gental shaking; h. add 100 μL or 25 μL of PBS to each well and read on CLX plate reader. The relative ER percentage in treated cells were obtained by comparing the values of treated wells to those in untreated and DMSO-treated wells as 100%.
For orientation: DC50 means the concentration at which degradation of the target reaches its halfway point. On to `C[C@@H]1Cc2c([nH]c3ccccc23)[C@@H](c2c(F)cc(N3CC4(CCN(C(=O)CN5Cc6cc7c(cc6C5)C(=O)N(C5CCC(=O)NC5=O)C7=O)C4)C3)cc2F)N1CC(F)F` (stereo partly drawn) [E 77, 6-(2-(2-(4-((1R,3R)-2-(2,2-difluoroethyl)-3-methyl-2,3,4,9-tetrahydro-1H-pyrido[3,4-b]indol-1-yl)-3,5-difluorophenyl)-2,6-diazaspiro[3.4]octan-6-yl)-2-oxoethyl)-2-(2,6-dioxopiperidin-3-yl)-6,7-dihydropyrrolo[3,4-f]isoindole-1,3(2H,5H)-dione], for which the DC50 was less than 10 nM.

Take `O=C1CCC(N2C(=O)c3cc4c(cc3C2=O)CN(C(=O)CN2CCC3(CC2)CCN(c2ccc([C@@H]5c6ccc(O)cc6CC[C@@H]5c5ccccc5)cc2)CC3)C4)C(=O)N1` (mixture of isomers) [E 126, Rac-2-(2,6-dioxopiperidin-3-yl)-6-(2-(9-(4-((1R,2S)-6-hydroxy-2-phenyl-1,2,3,4-tetrahydronaphthalen-1-yl)phenyl)-3,9-diazaspiro[5.5]undecan-3-yl)acetyl)-6,7-dihydropyrrolo[3,4-f]isoindole-1,3(2H,5H)-dione]: the DC50 lay within 10 to 100 nM.

For the compound `C[C@@H]1Cc2c([nH]c3ccccc23)[C@@H](c2c(F)cc(N3CC(C(=O)N4CC(CN5Cc6cc7c(cc6C5)C(=O)N(C5CCC(=O)NC5=O)C7=O)C4)C3)cc2F)N1CC(F)F` (stereo partly drawn) [E 230, 6-((1-(1-(4-((1R,3R)-2-(2,2-difluoroethyl)-3-methyl-2,3,4,9-tetrahydro-1H-pyrido[3,4-b]indol-1-yl)-3,5-difluorophenyl)azetidine-3-carbonyl)azetidin-3-yl)methyl)-2-(2,6-dioxopiperidin-3-yl)-6,7-dihydropyrrolo[3,4-f]isoindole-1,3(2H,5H)-dione], the DC50 was in the range of 10 to 100 nM.

In the case of `O=C1CCC(N2C(=O)c3cc4c(cc3C2=O)CN(CC2CCN(C(=O)C3(F)CCN(c5ccc([C@@H]6c7ccc(O)cc7CC[C@@H]6c6ccccc6)cc5)CC3)CC2)C4)C(=O)N1` (stereo partly drawn) [E 208, 2-(2,6-dioxopiperidin-3-yl)-6-((1-(4-fluoro-1-(4-((1R,2S)-6-hydroxy-2-phenyl-1,2,3,4-tetrahydronaphthalen-1-yl)phenyl)piperidine-4-carbonyl)piperidin-4-yl)methyl)-6,7-dihydropyrrolo[3,4-f]isoindole-1,3(2H,5H)-dione], the DC50 was greater than 100 nM.

With `C[C@@H]1Cc2c([nH]c3ccccc23)[C@@H](c2c(F)cc(N3CCC(CN4CCC(C(=O)N5Cc6cc7c(cc6C5)C(=O)N(C5CCC(=O)NC5=O)C7=O)CC4)C3)cc2F)N1CC(F)F` (stereo partly drawn) [E 57, 6-(1-((1-(4-((1R,3R)-2-(2,2-difluoroethyl)-3-methyl-2,3,4,9-tetrahydro-1H-pyrido[3,4-b]indol-1-yl)-3,5-difluorophenyl)pyrrolidin-3-yl)methyl)piperidine-4-carbonyl)-2-(2,6-dioxopiperidin-3-yl)-6,7-dihydropyrrolo[3,4-f]isoindole-1,3(2H,5H)-dione], the DC50 is less than 10 nM.

As to `C[C@@H]1Cc2c([nH]c3ccccc23)[C@@H](c2c(F)cc(N3CCC(CN4Cc5cc6c(cc5C4)C(=O)N(C4CCC(=O)NC4=O)C6=O)CC3)cc2F)N1CC(F)F` (stereo partly drawn) [E 89, 6-((1-(4-((1R,3R)-2-(2,2-difluoroethyl)-3-methyl-2,3,4,9-tetrahydro-1H-pyrido[3,4-b]indol-1-yl)-3,5-difluorophenyl)piperidin-4-yl)methyl)-2-(2,6-dioxopiperidin-3-yl)-6,7-dihydropyrrolo[3,4-f]isoindole-1,3(2H,5H)-dione], the DC50 is greater than 100 nM.

As for `O=C1CCC(N2C(=O)c3cc4c(cc3C2=O)CN(CC(=O)N2CCC3(CC2)CCN(c2ncc([C@@H]5c6ccc(O)cc6CC[C@@H]5c5ccccc5)cn2)CC3)C4)C(=O)N1` (mixture of isomers) [E 298, Rac-2-(2,6-dioxopiperidin-3-yl)-6-(2-(9-(5-((1S,2S)-6-hydroxy-2-phenyl-1,2,3,4-tetrahydronaphthalen-1-yl)pyrimidin-2-yl)-3,9-diazaspiro[5.5]undecan-3-yl)-2-oxoethyl)-6,7-dihydropyrrolo[3,4-f]isoindole-1,3(2H,5H)-dione], the DC50 was greater than 100 nM.

With `C[C@@H]1Cc2c([nH]c3ccccc23)[C@@H](c2c(F)cc(N3CCC(N4CCC(C(=O)N5Cc6cc7c(cc6C5)C(=O)N(C5CCC(=O)NC5=O)C7=O)CC4)C3)cc2F)N1CC(F)F` (stereo partly drawn) [E 110, 6-(1-(1-(4-((1R,3R)-2-(2,2-difluoroethyl)-3-methyl-2,3,4,9-tetrahydro-1H-pyrido[3,4-b]indol-1-yl)-3,5-difluorophenyl)pyrrolidin-3-yl)piperidine-4-carbonyl)-2-(2,6-dioxopiperidin-3-yl)-6,7-dihydropyrrolo[3,4-f]isoindole-1,3(2H,5H)-dione], the DC50 is greater than 100 nM.

`C[C@@H]1Cc2c([nH]c3ccccc23)[C@@H](c2c(F)cc(-c3cnc(C(=O)N4CCC(N5Cc6cc7c(cc6C5)C(=O)N(C5CCC(=O)NC5=O)C7=O)CC4)nc3)cc2F)N1CC(F)F` (stereo partly drawn) [E 309, 6-(1-(5-(4-((1R,3R)-2-(2,2-difluoroethyl)-3-methyl-2,3,4,9-tetrahydro-1H-pyrido[3,4-b]indol-1-yl)-3,5-difluorophenyl)pyrimidine-2-carbonyl)piperidin-4-yl)-2-(2,6-dioxopiperidin-3-yl)-6,7-dihydropyrrolo[3,4-f]isoindole-1,3(2H,5H)-dione]: the DC50 is 10 to 100 nM.

As for `C[C@@H]1Cc2c([nH]c3ccccc23)[C@@H](c2c(F)cc(C3CCC(C(=O)N4CC(N5Cc6cc7c(cc6C5)C(=O)N(C5CCC(=O)NC5=O)C7=O)C4)CC3)cc2F)N1CC(F)F` (stereo partly drawn) [E249, 6-(1-(4-(4-((1R,3R)-2-(2,2-difluoroethyl)-3-methyl-2,3,4,9-tetrahydro-1H-pyrido[3,4-b]indol-1-yl)-3,5-difluorophenyl)cyclohexane-1-carbonyl)azetidin-3-yl)-2-(2,6-dioxopiperidin-3-yl)-6,7-dihydropyrrolo[3,4-f]isoindole-1,3(2H,5H)-dione], the DC50 is greater than 100 nM.

In the case of `C[C@@H]1Cc2cc(O)ccc2[C@@H](c2c(F)cc(N3CCC4(CC3)CN(C(=O)CN3Cc5cc6c(cc5C3)C(=O)N(C3CCC(=O)NC3=O)C6)C4)cc2F)N1CC(F)F` (stereo partly shown) [E 35], the DC50 was less than 10 nM.

On to `O=C1CCC(N2C(=O)c3cc4c(cc3C2=O)CN(CC(=O)N2CCC3(CC2)CCN(c2cc(F)c([C@@H]5c6ccc(O)cc6CC[C@@H]5c5ccccc5)c(F)c2)CC3)C4)C(=O)N1` (mixture of isomers) [E 176, Rac-6-(2-(9-(3,5-difluoro-4-((1S,2S)-6-hydroxy-2-phenyl-1,2,3,4-tetrahydronaphthalen-1-yl)phenyl)-3,9-diazaspiro[5.5]undecan-3-yl)-2-oxoethyl)-2-(2,6-dioxopiperidin-3-yl)-6,7-dihydropyrrolo[3,4-f]isoindole-1,3(2H,5H)-dione], for which the DC50 was greater than 100 nM.

Staying with this assay, now noted: compounds 16 hours, Table A does not say whether T47D or MCF7, read-out: Potency (DC50).
`C[C@@H]1Cc2cc(O)ccc2[C@@H](c2c(F)cc(C3=CCC4(CC3)CCN(C(=O)CN3Cc5cc6c(cc5C3)C(=O)N(C3CCC(=O)NC3=O)C6=O)CC4)cc2F)N1CC(F)F` (stereo partly drawn) [E 446, 6-(2-(9-(4-((1S,3R)-2-(2,2-difluoroethyl)-6-hydroxy-3-methyl-1,2,3,4-tetrahydroisoquinolin-1-yl)-3,5-difluorophenyl)-3-azaspiro[5.5]undec-8-en-3-yl)-2-oxoethyl)-2-(2,6-dioxopiperidin-3-yl)-6,7-dihydropyrrolo[3,4-f]isoindole-1,3(2H,5H)-dione tetrahydroisoquinolin]: the half-maximal degradation concentration (DC50) was greater than 100 nM.

The values are drawn from patent US20240190880A1 (THE REGENTS OF THE UNIVERSITY OF MICHIGAN, priority 2021, published 2024).
